Earlier results in patent US9744299B2, “Data processing device for an anesthesia device” (Dräger Medical GmbH, priority 2012, dated 2017).
Like-named read-outs stand apart in the source and are kept apart here.

Columns and labels:
[1] = test system: patients; details: effect-site concentration, 50% of patients tolerate "Shake and Shout"
[2] = test system: patients; details: steepness of the rise of the response surface; property of the drug

SMILES	C50hyp ([1]; C50Prop) [µg/mL]	h (Steepness) [2]	C50hyp ([1]; C50Vol) [vol. %]
CC(C)c1cccc(C(C)C)c1O [Propofol, propofol]	2.99	3.46	
FCOC(C(F)(F)F)C(F)(F)F [sevoflurane]			1.47
